These results are taken from patent US11912647B2, “Diversity-oriented synthesis of N,N,O-trisubstituted hydroxylamines from alcohols and amines by N—O bond formation” (University of Georgia Research Foundation, Inc., priority 2020, dated 2024).

Series [1] has as its system human hepatocarcinoma cell line HepG2. The note with it: cited from earlier work.

A word on the melting point: it is the temperature, or range, at which the solid turns liquid. Regarding `CC(C)(C)ON1CCN(c2ccc(C(F)(F)F)cc2)CC1`, the melting point lay within 77.6 to 78.8 °C. Still for that read-out and setting: the figure for `CC(C)(C)ON1CCN(c2cccc(Cl)c2Cl)CC1` is 92 to 93 °C. A word on the IC50: it is the midpoint of a concentration-inhibition curve. As to 10-aza-9-oxakalkitoxin, the IC50 in series [1] is reported as 2.4 ng/mL. Besides, the “activity toward HepG2 relative to kalkitoxin” value in series [1] (hydroxalog versus parent natural product) is recorded as “complete retention of activity”. As for kalkitoxin, the IC50 in series [1] was 3.2 ng/mL.
